# Experiments:
# [1] = system: genotype A, “Long” strain RSV; assay: RSV-A assay (CPE, ATPlite readout in Hep-2 cells); type: cell-based, Human respiratory syncytial virus; conditions: human respiratory syncytial virus, activity class
# From the text: Hep-2 cells, (originally derived from tumors grown in irradiated-cortisonised weanling rats that had been injected with epidermoid carcinoma tissue from the larynx of a person, but later found to be indistinguishable from HeLa cells by PCR DNA analysis), were used for the culturing of genotype A, “Long” strain RSV. Flasks were inoculated with RSV and viral stocks were collected once cytopathic effect (CPE) was greater than 90%. Viral stocks in 25% sucrose media were snap frozen using liquid nitrogen to increase viral stability. Viral stock titers were quantified by tissue culture infectious dose 50% (TCID50) using 8,000 cells per well and 3-fold viral dilutions across a 96-well plate, cultured for 4 days. Viral stock titers were also quantified by a plaque forming unit assay, as described elsewhere.
# Following extensive parameter testing, the final assay is run as follows: Hep-2 cells are seeded into the inner 60 wells of a 96-well plate at 8,000 cells per well in a volume of 50 μL using Growth Media (DMEM without phenol red, 1% L-Glut, 1% Penn/Strep, 1% nonessential amino acids, 10% heat-inactivated FBS). 2-fold serial dilutions of control and test compounds are added to the wells in duplicate in a total volume of 25 μL. Viral stock is then added to the wells at a multiplicity of infection (MOI) of 0.1 in a volume of 25 μL, bringing the total volume of each well to 100 μL. The MOI is calculated using the PFU/mL, or TCID50 if unavailable. Each 96-well plate has a control column of 6 wells with cells and virus but no compound (negative control, max CPE), a column with cells but no compound or virus (positive control, minimum CPE), and a column with no cells or virus or compound (background plate/reagent control). The control wells with cells but no virus are given an additional 25 μL of growth media containing an equal quantity of sucrose as those wells receiving the viral stock in order to keep consistent in media and volume conditions. The outer wells of the plate are filled with 125 μL of moat media (DMEM, 1% Penn/Strep) to act as a thermal and evaporative moat around the test wells. Following a 5-day incubation period, the plates are read using ATPlite (50 uL added per well), which quantifies the amount of ATP (a measure of cell health) present in each well. Assay plates are read using the Envision luminometer. […] EC50 ranges are as follows: A<0.2 μM; B>0.2 μM.
# [2] = system: HMPV clinical isolate A2 strain TN 94-49; assay: HMPV antiviral assay, Method 2 (LLC-MK2 cells with CP-100-356, ATP-Lite); type: cell-based; conditions: human metapneumovirus
# Method in brief: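 LLC-MK2 rhesus kidney cells (5,000/well) infected in suspension with HMPV A2 TN 94-49 at MOI 0.16, in serum-free medium with final 2 μg/mL TPCK-trypsin and 2 μM CP-100-356. Compounds tested in duplicate from 200 nM, 2.5-fold, 10 points; 7 days at 37 °C. Cell health by ATP-Lite luminescence; EC50 by four-parameter fit.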
# [3] = hMPV A2 TN/94-49, LLC-MK2 cells with CP-100-356, Method 2
# [4] = 168 h, hMPV A2 TN/94-49, LLC-MK2 cells with 4 μM CP-100-356, 7 days, ATP-Lite
EC50 [1],"EC50 [2, 3]","EC50 [2, 4]",SMILES
< 200 nM,> 200 nM,,C#CC(O)(CNC(=O)c1cc(OC)c2nn(C3CC3)cc2c1)c1cc2c(c(-c3cc(Cl)c(F)cc3F)n1)OC[C@]2(C)C(N)=O (stereo partly drawn) [Example 473]
< 200 nM,< 200 nM,,COc1cc(C(=O)NC[C@](O)(c2cc3c(c(-c4ccnc(C(F)(F)F)c4Cl)n2)OC[C@]3(C)C(N)=O)C2CC2)cc2oc(C(F)F)nc12 [Example 581]
< 200 nM,,< 200 nM,COc1cc(C(=O)NC[C@@](O)(c2ccccc2)c2cc3c(c(-n4ncc5c(F)cccc54)n2)OC[C@]3(C)C(N)=O)cc2cn(C3CC3)nc12 [Example 628]
< 200 nM,,< 200 nM,COc1cc(C(=O)NC[C@](O)(c2cc3c(c(-c4cc(C(F)(F)F)ncc4F)n2)OC[C@]3(C)C(N)=O)C2CC2)cn2cc(C3CC3)nc12 [Example 662]
< 200 nM,< 200 nM,,COc1cc(C(=O)NC[C@](O)(c2cc3c(c(-c4ccnc(C(F)(F)F)c4Cl)n2)OC[C@]3(C)C(N)=O)C2CC2)cc2cc(C3CC3)nn12 [Example 579]
< 200 nM,< 200 nM,,COc1cc(C(=O)NC[C@](O)(c2cc3c(c(-c4ccc5c(c4Cl)OC(F)(F)O5)n2)OC[C@]3(C)C(N)=O)C2CC2)cc2cc(Cl)cnc12 [Example 105]
< 200 nM,< 200 nM,,COc1cc(C(=O)NC[C@](O)(c2cc3c(c(-c4cccc(F)c4Cl)n2)OC[C@]3(C)C(N)=O)C(F)(F)F)cc2cn(C3(F)CC3)nc12 [Example 611]
< 200 nM,,< 200 nM,C[C@]1(C(N)=O)COc2c1cc([C@@](O)(CNC(=O)c1cc(OCCO)c3nn(C4CC4)cc3c1)C1CC1)nc2-c1ccc2c(c1Cl)OC(F)(F)O2 [Example 681]
< 200 nM,< 200 nM,,COc1cc(C(=O)NC[C@@](O)(c2ccccc2)c2cc3c(c(-c4ccnc(F)c4Cl)n2)OC[C@]3(C)C(N)=O)cc2oc(C3CC3)nc12 [Example 345]
< 200 nM,,< 200 nM,COc1cc(C(=O)NC[C@](O)(c2cc3c(c(-c4ccnc(C(F)F)c4Cl)n2)OC[C@]3(C)C(N)=O)C2CC2)cc2oc(C3CC3)nc12 [Example 787]
< 200 nM,< 200 nM,,COc1cc(C(=O)NC[C@](O)(c2cc3c(c(-c4csc(Cl)c4)n2)OC[C@]3(C)C(N)=O)C2CC2)cc2cn(C3CC3)nc12 [Example 416]
< 200 nM,,< 200 nM,COc1cc(C(=O)NC[C@](O)(c2cc3c(c(-c4ccnc(C5CC5)c4Cl)n2)OC[C@]3(C)C(N)=O)C2CC2)cc2cn(C3CC3)nc12 [Example 721]
< 200 nM,> 200 nM,,C[C@]1(C(N)=O)COc2c1cc([C@@](O)(CNC(=O)c1cc(Cl)c3[nH]ncc3c1)C1CC1)nc2-c1cc(F)c(F)cc1F [Example 119]
< 200 nM,,< 200 nM,COc1cc(C(=O)NC[C@](O)(c2cc3c(c(-c4ccn5nccc5c4Cl)n2)OC[C@]3(C)C(N)=O)C2CC2)cc2cn(C3CC3)nc12 [Example 824]
< 200 nM,< 200 nM,,COc1cc(C(=O)NC[C@@](O)(c2cccc(F)c2)c2cc3c(c(-c4ccnc(C)c4Cl)n2)OC[C@]3(C)C(N)=O)cc2cn(C3CC3)nc12 [Example 378]
< 200 nM,,< 200 nM,COc1cc(C(=O)NC[C@](O)(c2cc3c(c(-n4ccc5c(F)cccc54)n2)OC[C@]3(C)C(N)=O)C2(F)CC2)cc2cn(C3CC3)nc12 [Example 861]
< 200 nM,> 200 nM,,COc1cc(C(=O)NC[C@@](O)(C#CC(C)(C)S(C)(=O)=O)c2cc3c(c(-c4cc(Cl)c(F)cc4F)n2)OC[C@]3(C)C(N)=O)cc2cn(C3CC3)nc12 [Example 341]
< 200 nM,< 200 nM,,COc1cc(C(=O)NC[C@@](O)(c2cccc(F)c2)c2cc3c(c(-c4cc(Cl)ncc4F)n2)OC[C@]3(C)C(N)=O)cc2cn(C3CC3)nc12 [Example 410]
< 200 nM,< 200 nM,,COc1cc(C(=O)NC[C@](O)(c2cc3c(c(-c4ccsc4)n2)OC[C@]3(C)C(N)=O)C2CC2)cc2cn(C3CC3)nc12 [Example 413]
< 200 nM,,< 200 nM,COc1cc(C(=O)NC[C@](O)(c2cc3c(c(-c4ccnc(C(F)(F)F)c4Cl)n2)OC[C@]3(C)C(N)=O)C(F)(F)F)cc2cn(C3CC3)nc12 [Example 783]

EC50 [1],"EC50 [2, 3]","EC50 [2, 4]",SMILES
< 200 nM,< 200 nM,,COc1cc(C(=O)NC[C@](O)(c2cc3c(c(-c4ccnc(F)c4Cl)n2)OC[C@]3(C)C(N)=O)C(F)(F)F)cc2cn(C(F)F)nc12 [Example 380]
< 200 nM,,< 200 nM,COc1cc(C(=O)NC[C@](O)(c2cc3c(c(-n4ccc5c(F)cccc54)n2)OC[C@]3(C)C(N)=O)C2(F)CC2)cn2cc(C3CC3)nc12 [Example 690]
< 200 nM,< 200 nM,,COc1cc(C(=O)NC[C@@](O)(c2cccc(F)c2)c2cc3c(c(-c4ccnc(F)c4Cl)n2)OC[C@]3(C)C(N)=O)cc2cn(C3(F)CC3)nc12 [Example 401]
< 200 nM,> 200 nM,,COc1cc(C(=O)NC[C@](O)(c2cc3c(c(-c4ccc(F)c(Cl)c4)n2)OC[C@]3(C)C(N)=O)C2CC2)cc2oc(C3CC3)nc12 [Example 111]
> 200 nM,> 200 nM,,COc1cc(C(=O)NC[C@](O)(c2cccc(F)c2)c2cc3c(c(-c4ccnc(F)c4Cl)n2)OC[C@]3(C)C(N)=O)cc2cn(C3(F)CC3)nc12 [Example 402]
< 200 nM,< 200 nM,,COc1cc(C(=O)NC[C@](O)(c2cc3c(c(-c4ccc(F)c(Cl)c4Cl)n2)OC[C@]3(C)C(N)=O)C2CC2)cc2cc(C3CC3)nn12 [Example 324]
< 200 nM,,< 200 nM,COc1cc(C(=O)NC[C@](O)(c2cc3c(c(-n4ncc5c(F)cccc54)n2)OC[C@]3(C)C(N)=O)C2CC2)cc2cn(C3CC3)nc12 [Example 820]
< 200 nM,,< 200 nM,COc1cc(C(=O)NC[C@](O)(c2cc3c(c(-n4ccc5c(F)cccc54)n2)OC[C@]3(C)C(N)=O)C2CC2)cn2cc(C3CC3)nc12 [Example 868]
< 200 nM,< 200 nM,,COc1cc(C(=O)NC[C@](O)(c2cc3c(c(-c4ccc(F)c(Cl)c4Cl)n2)OC[C@]3(C)C(N)=O)C2CC2)cc2cn(C3(F)CC3)nc12 [Example 322]
< 200 nM,,< 200 nM,COc1cc(C(=O)NC[C@](O)(c2cc3c(c(-c4ccnc(C(F)F)c4Cl)n2)OC[C@]3(C)C(N)=O)C2CC2)cc2cn(C3CC3)nc12 [Example 780]
< 200 nM,> 200 nM,,COc1cc(C(=O)NCC(O)(c2cccc(F)c2)c2cc3c(c(-c4cc(C(F)(F)F)ncc4Cl)n2)OC[C@]3(C)C(N)=O)cc2cn(C3CC3)nc12 (stereo partly drawn) [Example 379]
< 200 nM,< 200 nM,,COc1cc(C(=O)NC[C@](O)(c2cc3c(c(-c4ccnc(C(F)F)c4Cl)n2)OC[C@]3(C)C(N)=O)C(F)(F)F)cc2oc(C3CC3)nc12 [Example 550]
< 200 nM,> 200 nM,,COc1cc(C(=O)N(C)C[C@](O)(c2cc3c(c(-c4ccc(F)c(Cl)c4)n2)OC[C@]3(C(N)=O)C(F)F)C2CC2)cc2cn(C3CC3)nc12 [Example 350]
< 200 nM,< 200 nM,,COc1cc(C(=O)NC[C@](O)(c2cc3c(c(-c4ccnc(C(F)(F)F)c4Cl)n2)OC[C@]3(C)C(N)=O)C(F)(F)F)cc2cn(C3(F)CC3)nc12 [Example 534]
< 200 nM,> 200 nM,,COc1cc(C(=O)NC[C@@](O)(CN(C)C)c2cc3c(c(-c4cc(Cl)c(F)cc4F)n2)OC[C@]3(C)C(N)=O)cc2cn(C3CC3)nc12 [Example 238]
< 200 nM,< 200 nM,,COc1cc(C(=O)NC[C@](O)(c2cc3c(c(-c4cccc(F)c4Cl)n2)OC[C@]3(C)C(N)=O)C2CC2)cc2cn(C3(F)CC3)nc12 [Example 615]
< 200 nM,> 200 nM,,COc1cc(C(=O)NC[C@](O)(c2cc3c(c(-c4ccnc(C)c4Cl)n2)OC[C@]3(C)C(N)=O)C2(F)CC2)cc2cn(C(F)F)nc12 [Example 527]
< 200 nM,< 200 nM,,COc1cc(C(=O)NC[C@](O)(c2cc3c(c(-c4cc(C(F)(F)F)ncc4F)n2)OC[C@]3(C)C(N)=O)C2CC2)cc2oc(C3CC3)nc12 [Example 349]
< 200 nM,< 200 nM,,C[C@]1(C(N)=O)COc2c1cc([C@@](O)(CNC(=O)c1cc(OC3CC3)c3ncc(Cl)cc3c1)C1CC1)nc2-c1ccc2c(c1Cl)OC(F)(F)O2 [Example 106]

# From US20240368174A1, “Antiviral Heterocyclic Compounds” (Enanta Pharmaceuticals, Inc., priority 2023, published 2024)
